Test results published in ChEMBL document CHEMBL4507283, “Data for DCP probe BI-1935” (2021).

Columns and labels:
[1] = target: Type-1 angiotensin II receptor (Oryctolagus cuniculus) (UniProt P34976); experiment: AT1 Eurofins-Panlabs selectivity data (BI); conditions: Homo sapiens; Compound concentration 10.0 uM
[2] = target: B2 bradykinin receptor (Homo sapiens) (UniProt P30411); experiment: B2/HU Eurofins-Panlabs selectivity data (BI); conditions: Compound concentration 10.0 uM
[3] = target: Voltage-dependent L-type calcium channel subunit alpha-1C (phenylalkylamine site) (Rattus norvegicus, UniProt P22002); experiment: CA+/PAASITE Eurofins-Panlabs selectivity data (BI); conditions: compound concentration 10 uM, read-out: % Ctrl
[4] = target: D(1A) dopamine receptor (Homo sapiens) (UniProt P21728); experiment: D1/HU Eurofins-Panlabs selectivity data (BI); conditions: Compound concentration 10.0 uM
[5] = target: Neprilysin (Homo sapiens) (UniProt P08473); experiment: NEUTRALENDOP Eurofins-Panlabs selectivity data (BI); conditions: Compound concentration 10.0 uM
[6] = target: cGMP-inhibited 3',5'-cyclic phosphodiesterase 3A (Homo sapiens) (UniProt Q14432); experiment: PDE-III/HU Eurofins-Panlabs selectivity data (BI); conditions: Compound concentration 10.0 uM
[7] = tested on: Tyrosine-protein kinase ABL1 (Homo sapiens), P00519 [F317I]; conditions: Compound concentration 1000.0 nM
Chain of Tyrosine-protein kinase ABL1 (Homo sapiens), P00519 [F317I] (P00519 whole entry F317I): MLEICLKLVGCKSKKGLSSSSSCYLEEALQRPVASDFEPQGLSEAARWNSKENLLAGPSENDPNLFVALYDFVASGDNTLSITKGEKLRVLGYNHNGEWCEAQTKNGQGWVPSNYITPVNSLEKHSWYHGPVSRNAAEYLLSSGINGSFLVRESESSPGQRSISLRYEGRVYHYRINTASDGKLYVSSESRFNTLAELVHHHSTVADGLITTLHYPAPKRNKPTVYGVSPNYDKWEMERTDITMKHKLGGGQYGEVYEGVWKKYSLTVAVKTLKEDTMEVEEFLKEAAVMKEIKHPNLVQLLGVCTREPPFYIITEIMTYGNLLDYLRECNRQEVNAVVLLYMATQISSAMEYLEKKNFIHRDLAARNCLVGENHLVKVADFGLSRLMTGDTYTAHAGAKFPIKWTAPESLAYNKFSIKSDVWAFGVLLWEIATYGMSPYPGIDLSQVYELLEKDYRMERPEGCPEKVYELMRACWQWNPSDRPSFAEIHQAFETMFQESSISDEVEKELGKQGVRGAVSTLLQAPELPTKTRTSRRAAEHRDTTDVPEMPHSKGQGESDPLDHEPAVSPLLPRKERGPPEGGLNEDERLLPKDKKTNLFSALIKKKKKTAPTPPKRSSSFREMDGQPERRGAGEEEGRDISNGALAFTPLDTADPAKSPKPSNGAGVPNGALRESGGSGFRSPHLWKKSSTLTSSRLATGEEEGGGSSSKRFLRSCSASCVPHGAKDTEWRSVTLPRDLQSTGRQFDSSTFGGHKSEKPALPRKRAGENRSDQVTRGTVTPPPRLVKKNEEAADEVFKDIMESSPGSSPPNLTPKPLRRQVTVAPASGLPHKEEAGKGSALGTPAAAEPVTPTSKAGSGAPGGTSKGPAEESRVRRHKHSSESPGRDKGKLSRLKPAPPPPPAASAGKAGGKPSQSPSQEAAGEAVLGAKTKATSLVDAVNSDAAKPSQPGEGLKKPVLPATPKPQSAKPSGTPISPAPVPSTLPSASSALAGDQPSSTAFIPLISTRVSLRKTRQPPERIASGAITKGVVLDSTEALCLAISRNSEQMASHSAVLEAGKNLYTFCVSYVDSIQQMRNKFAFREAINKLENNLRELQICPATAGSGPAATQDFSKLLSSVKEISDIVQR

[8] = target: Tyrosine-protein kinase ABL1 (Homo sapiens) (UniProt P00519); conditions: Compound concentration 1000.0 nM
Chain of Tyrosine-protein kinase ABL1 (Homo sapiens) (P00519 whole entry): as the sequence (P00519 whole entry F317I) above, with I317F counted along it

[9] = target: Calcium/calmodulin-dependent protein kinase type II subunit delta (Homo sapiens) (UniProt Q13557); conditions: Compound concentration 1000.0 nM
Chain of Calcium/calmodulin-dependent protein kinase type II subunit delta (Homo sapiens) (Q13557 whole entry): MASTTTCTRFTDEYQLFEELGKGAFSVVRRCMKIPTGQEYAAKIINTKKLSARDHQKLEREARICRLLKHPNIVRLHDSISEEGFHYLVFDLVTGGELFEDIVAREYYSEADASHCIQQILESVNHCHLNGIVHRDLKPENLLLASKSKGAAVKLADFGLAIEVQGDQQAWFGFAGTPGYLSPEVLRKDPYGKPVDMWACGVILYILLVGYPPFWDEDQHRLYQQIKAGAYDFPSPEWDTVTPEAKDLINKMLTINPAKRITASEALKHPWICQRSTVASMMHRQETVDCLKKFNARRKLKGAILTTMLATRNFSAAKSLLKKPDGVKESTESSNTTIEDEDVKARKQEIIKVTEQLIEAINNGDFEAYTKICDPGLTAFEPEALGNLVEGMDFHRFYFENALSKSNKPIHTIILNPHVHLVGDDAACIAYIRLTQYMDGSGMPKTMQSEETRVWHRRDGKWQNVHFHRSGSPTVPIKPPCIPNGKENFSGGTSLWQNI

[10] = target: Calcium/calmodulin-dependent protein kinase type IV (Homo sapiens) (UniProt Q16566); conditions: Compound concentration 1000.0 nM
[11] = target: Cyclin-dependent kinase 4 (Homo sapiens) (UniProt P11802); conditions: Compound concentration 1000.0 nM
[12] = target: Dual specificity protein kinase CLK1 (Homo sapiens) (UniProt P49759); conditions: Compound concentration 1000.0 nM
Chain of Dual specificity protein kinase CLK1 (Homo sapiens) (P49759 whole entry, looked up): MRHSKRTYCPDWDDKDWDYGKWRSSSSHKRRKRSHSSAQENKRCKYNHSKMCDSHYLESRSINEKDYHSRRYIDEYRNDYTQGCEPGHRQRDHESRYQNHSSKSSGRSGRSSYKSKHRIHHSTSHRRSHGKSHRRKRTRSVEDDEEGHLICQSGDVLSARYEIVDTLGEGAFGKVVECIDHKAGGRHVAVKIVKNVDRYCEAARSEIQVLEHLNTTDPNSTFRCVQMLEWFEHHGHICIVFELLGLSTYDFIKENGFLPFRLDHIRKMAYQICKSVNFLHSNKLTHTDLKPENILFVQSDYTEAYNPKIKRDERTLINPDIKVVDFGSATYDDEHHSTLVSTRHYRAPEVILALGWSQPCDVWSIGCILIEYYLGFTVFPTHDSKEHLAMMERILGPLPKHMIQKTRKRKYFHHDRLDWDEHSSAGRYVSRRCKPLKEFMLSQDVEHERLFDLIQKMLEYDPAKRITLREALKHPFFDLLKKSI

[13] = target: Macrophage colony-stimulating factor 1 receptor (Homo sapiens) (UniProt P07333); conditions: Compound concentration 1000.0 nM
[14] = tested on: Epidermal growth factor receptor (Homo sapiens), P00533 [L858R]; conditions: Compound concentration 1000.0 nM
[15] = tested on: Epidermal growth factor receptor (Homo sapiens), P00533 [T790M]; conditions: Compound concentration 1000.0 nM
[16] = target: Mitogen-activated protein kinase 6 (Homo sapiens) (UniProt Q16659); conditions: Compound concentration 1000.0 nM
[17] = tested on: eIF-2-alpha kinase GCN2 (Homo sapiens), Q9P2K8 [S808G]; conditions: Compound concentration 1000.0 nM
[18] = target: Homeodomain-interacting protein kinase 1 (Homo sapiens) (UniProt Q86Z02); conditions: Compound concentration 1000.0 nM
[19] = target: Inhibitor of nuclear factor kappa-B kinase subunit epsilon (Homo sapiens) (UniProt Q14164); conditions: Compound concentration 1000.0 nM
[20] = tested on: Mast/stem cell growth factor receptor Kit (Homo sapiens), P10721 [A829P]; conditions: Compound concentration 1000.0 nM
[21] = tested on: Mast/stem cell growth factor receptor Kit (Homo sapiens), P10721 [L576P]; conditions: Compound concentration 1000.0 nM
[22] = tested on: Mast/stem cell growth factor receptor Kit (Homo sapiens), P10721 [V559D]; conditions: Compound concentration 1000.0 nM
[23] = target: Mitogen-activated protein kinase kinase kinase kinase 4 (Homo sapiens) (UniProt O95819); conditions: Compound concentration 1000.0 nM
[24] = target: MAP kinase-activated protein kinase 5 (Homo sapiens) (UniProt Q8IW41); conditions: Compound concentration 1000.0 nM
[25] = target: Serine/threonine-protein kinase MARK1 (Homo sapiens) (UniProt Q9P0L2); conditions: Compound concentration 1000.0 nM
[26] = target: Dual specificity mitogen-activated protein kinase kinase 1 (Homo sapiens) (UniProt Q02750); conditions: Compound concentration 1000.0 nM
[27] = target: Dual specificity mitogen-activated protein kinase kinase 7 (Homo sapiens) (UniProt O14733); conditions: Compound concentration 1000.0 nM
Chain of Dual specificity mitogen-activated protein kinase kinase 7 (Homo sapiens) (O14733 whole entry): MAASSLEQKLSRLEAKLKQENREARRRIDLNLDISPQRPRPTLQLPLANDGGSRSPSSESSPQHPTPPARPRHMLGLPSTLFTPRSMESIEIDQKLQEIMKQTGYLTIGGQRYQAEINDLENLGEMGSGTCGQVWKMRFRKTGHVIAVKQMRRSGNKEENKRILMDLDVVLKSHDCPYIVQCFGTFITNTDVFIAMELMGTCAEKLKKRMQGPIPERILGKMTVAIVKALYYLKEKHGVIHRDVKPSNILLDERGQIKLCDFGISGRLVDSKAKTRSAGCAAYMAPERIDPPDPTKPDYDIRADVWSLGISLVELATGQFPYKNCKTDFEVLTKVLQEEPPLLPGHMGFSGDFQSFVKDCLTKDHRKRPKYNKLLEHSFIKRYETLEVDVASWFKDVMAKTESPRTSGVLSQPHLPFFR

[28] = target: Mitogen-activated protein kinase kinase kinase 11 (Homo sapiens) (UniProt Q16584); conditions: Compound concentration 1000.0 nM
[29] = target: Serine/threonine-protein kinase mTOR (Homo sapiens) (UniProt P42345); conditions: Compound concentration 1000.0 nM
[30] = target: Serine/threonine-protein kinase PAK 2 (Homo sapiens) (UniProt Q13177); conditions: Compound concentration 1000.0 nM
[31] = tested on: Phosphatidylinositol 4,5-bisphosphate 3-kinase catalytic subunit alpha isoform (Homo sapiens), P42336 [M1043I]; conditions: Compound concentration 1000.0 nM
[32] = target: Phosphatidylinositol 4,5-bisphosphate 3-kinase catalytic subunit delta isoform (Homo sapiens) (UniProt O00329); conditions: Compound concentration 1000.0 nM
Chain of Phosphatidylinositol 4,5-bisphosphate 3-kinase catalytic subunit delta isoform (Homo sapiens) (O00329 whole entry, canonical isoform): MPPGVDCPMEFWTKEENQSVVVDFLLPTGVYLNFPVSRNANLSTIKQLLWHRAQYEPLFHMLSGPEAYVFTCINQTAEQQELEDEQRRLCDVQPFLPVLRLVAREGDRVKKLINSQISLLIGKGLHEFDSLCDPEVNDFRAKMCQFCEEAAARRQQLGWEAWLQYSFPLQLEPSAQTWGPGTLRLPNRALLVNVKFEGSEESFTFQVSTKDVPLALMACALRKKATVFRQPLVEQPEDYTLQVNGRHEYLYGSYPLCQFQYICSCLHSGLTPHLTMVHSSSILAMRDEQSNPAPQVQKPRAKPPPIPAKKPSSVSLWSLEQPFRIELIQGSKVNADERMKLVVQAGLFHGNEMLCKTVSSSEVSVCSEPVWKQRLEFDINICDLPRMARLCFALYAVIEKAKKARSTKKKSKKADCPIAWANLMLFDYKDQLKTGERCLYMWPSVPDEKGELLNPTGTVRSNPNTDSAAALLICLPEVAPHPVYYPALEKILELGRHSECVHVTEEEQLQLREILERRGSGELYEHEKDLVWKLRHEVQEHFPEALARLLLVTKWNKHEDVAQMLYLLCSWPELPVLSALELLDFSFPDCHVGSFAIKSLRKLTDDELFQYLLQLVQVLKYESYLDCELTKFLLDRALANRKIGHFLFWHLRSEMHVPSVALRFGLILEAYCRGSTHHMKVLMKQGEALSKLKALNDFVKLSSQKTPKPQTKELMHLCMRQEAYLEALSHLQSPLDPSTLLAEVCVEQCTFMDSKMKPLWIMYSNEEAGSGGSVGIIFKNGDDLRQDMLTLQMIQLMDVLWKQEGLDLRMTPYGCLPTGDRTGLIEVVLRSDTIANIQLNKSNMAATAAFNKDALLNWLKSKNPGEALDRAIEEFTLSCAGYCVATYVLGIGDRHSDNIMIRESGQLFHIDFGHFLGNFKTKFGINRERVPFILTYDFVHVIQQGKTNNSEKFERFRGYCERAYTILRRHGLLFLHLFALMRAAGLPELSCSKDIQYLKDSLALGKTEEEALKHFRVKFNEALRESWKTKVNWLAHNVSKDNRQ

[33] = target: Phosphatidylinositol 4-kinase beta (Homo sapiens) (UniProt Q9UBF8); conditions: Compound concentration 1000.0 nM
Chain of Phosphatidylinositol 4-kinase beta (Homo sapiens) (Q9UBF8 2-816 limits assumed): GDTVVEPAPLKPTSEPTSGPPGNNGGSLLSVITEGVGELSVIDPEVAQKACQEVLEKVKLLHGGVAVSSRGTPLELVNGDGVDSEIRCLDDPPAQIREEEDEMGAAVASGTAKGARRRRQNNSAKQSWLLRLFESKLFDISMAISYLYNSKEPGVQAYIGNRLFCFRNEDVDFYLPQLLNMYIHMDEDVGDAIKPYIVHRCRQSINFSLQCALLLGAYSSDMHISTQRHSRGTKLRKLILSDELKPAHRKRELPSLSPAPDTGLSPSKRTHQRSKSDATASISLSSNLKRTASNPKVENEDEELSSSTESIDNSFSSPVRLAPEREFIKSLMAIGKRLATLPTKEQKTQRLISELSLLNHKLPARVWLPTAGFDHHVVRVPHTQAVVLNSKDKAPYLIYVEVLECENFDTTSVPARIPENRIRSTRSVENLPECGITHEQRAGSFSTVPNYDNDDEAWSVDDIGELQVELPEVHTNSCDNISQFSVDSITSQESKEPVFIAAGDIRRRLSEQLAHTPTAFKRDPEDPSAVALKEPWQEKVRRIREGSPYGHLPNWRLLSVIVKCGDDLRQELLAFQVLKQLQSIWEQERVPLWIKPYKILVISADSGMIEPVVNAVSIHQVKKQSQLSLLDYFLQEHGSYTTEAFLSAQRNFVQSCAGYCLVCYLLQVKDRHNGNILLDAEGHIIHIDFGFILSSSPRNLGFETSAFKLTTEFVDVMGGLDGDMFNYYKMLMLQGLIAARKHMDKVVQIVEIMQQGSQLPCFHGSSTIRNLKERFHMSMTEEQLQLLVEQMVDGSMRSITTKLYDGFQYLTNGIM

[34] = target: Serine/threonine-protein kinase N1 (Homo sapiens) (UniProt Q16512); conditions: Compound concentration 1000.0 nM
[35] = tested on: Proto-oncogene tyrosine-protein kinase receptor Ret (Homo sapiens), P07949 [V804M]; conditions: Compound concentration 1000.0 nM
[36] = target: Ribosomal protein S6 kinase alpha-5 (Homo sapiens) (UniProt O75582); conditions: Compound concentration 1000.0 nM
[37] = target: Serine/threonine-protein kinase SIK1 (Homo sapiens) (UniProt P57059); conditions: Compound concentration 1000.0 nM
[38] = target: SNF-related serine/threonine-protein kinase (Homo sapiens) (UniProt Q9NRH2); conditions: Compound concentration 1000.0 nM
[39] = target: SRSF protein kinase 2 (Homo sapiens) (UniProt P78362); conditions: Compound concentration 1000.0 nM
[40] = target: Serine/threonine-protein kinase 32C (Homo sapiens) (UniProt Q86UX6); conditions: Compound concentration 1000.0 nM
[41] = target: Mitogen-activated protein kinase kinase kinase 20 (Homo sapiens) (UniProt Q9NYL2); conditions: Compound concentration 1000.0 nM
[42] = target: Tyrosine-protein kinase ZAP-70 (Homo sapiens) (UniProt P43403); conditions: Compound concentration 1000.0 nM
[43] = target: Sodium-dependent noradrenaline transporter (Homo sapiens) (UniProt P23975); conditions: Compound concentration 10.0 uM
[44] = target: Histamine H2 receptor (Homo sapiens) (UniProt P25021); conditions: Compound concentration 10.0 uM
Chain of Histamine H2 receptor (Homo sapiens) (P25021 whole entry): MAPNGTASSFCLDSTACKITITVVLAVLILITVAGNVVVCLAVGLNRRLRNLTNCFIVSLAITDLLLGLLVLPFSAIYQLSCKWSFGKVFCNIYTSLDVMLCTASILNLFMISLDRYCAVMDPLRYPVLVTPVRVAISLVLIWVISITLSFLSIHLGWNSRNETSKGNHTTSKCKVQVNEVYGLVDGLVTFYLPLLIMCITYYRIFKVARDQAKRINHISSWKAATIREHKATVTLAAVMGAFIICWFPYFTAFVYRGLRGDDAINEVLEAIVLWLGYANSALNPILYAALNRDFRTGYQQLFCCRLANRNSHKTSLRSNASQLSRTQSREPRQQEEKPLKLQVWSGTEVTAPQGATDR

CCOCCn1cc(C(=O)Nc2ccc(-n3nc(-c4cccnc4)cc3C(F)(F)F)cn2)ccc1=O [BI 1935]
88.5% (not active): activity at 10 µM [3]
inactive: residual activity [1] 93% | residual activity [2] 100% | residual activity [4] 110% | residual activity [5] 104% | residual activity [6] 85% | residual activity [7] 91% | residual activity [8] 61% | residual activity [9] 100% | residual activity [10] 100% | residual activity [11] 87% | residual activity [12] 100% | residual activity [13] 100% | residual activity [14] 90% | residual activity [15] 100% | residual activity [16] 100% | residual activity [17] 72% | residual activity [18] 90% | residual activity [19] 79% | residual activity [20] 100% | residual activity [21] 94% | residual activity [22] 87% | residual activity [23] 91% | residual activity [24] 87% | residual activity [25] 100% | residual activity [26] 86% | residual activity [27] 85% | residual activity [28] 100% | residual activity [29] 100% | residual activity [30] 84% | residual activity [31] 100% | residual activity [32] 100% | residual activity [33] 100% | residual activity [34] 76% | residual activity [35] 100% | residual activity [36] 100% | residual activity [37] 100% | residual activity [38] 88% | residual activity [39] 100% | residual activity [40] 100% | residual activity [41] 73% | residual activity [42] 67% | inhibition [43] -7.51% | inhibition [44] -3.48%
